{
  "source": "patent US20070134233A1",
  "about": "“Compositions and methods relating to organ-, tissue-, and cell-specific antibodies” (Phylonix Pharmaceuticals, Inc., priority 2004, published 2007)",
  "key": {"[1]": {"test_system": "angiogenic vessel growth in zebrafish embryos", "test": "Quantitative in vivo microplate assay using Phy-V001 mAb", "details": "for effect on angiogenic vessel development (discussion summary): 2 dpf and 3 dpf stages; for Vessel Reduction (%) Zebrafish: single dosing, Concentration SU5416 2 μM, Flavopiridol 3 μM"}, "[2]": {"test_system": "angiogenic vessel development in zebrafish embryos", "test": "Whole mount immunostaining with Phy-V001 of drug-treated embryos", "assay_type": "in vivo", "details": "for vasculature compared to controls: various concentrations; for vasculature compared to controls / ISV staining by Phy-V001: at 3 dpf; for ISV staining by Phy-V001: 48 hours"}, "[3]": {"test_system": "activated endothelial cells in the zebrafish embryo", "test": "Quantitative in vivo EC proliferation assay (whole animal Phy-V002 ELISA)", "details": "~20 hpf embryos treated for 28 hours", "method": "Quantitative in vivo EC proliferation assay: Embryos were fixed by Dent's fixative (DMSO/methanol=1/3) at room temperature (23+2° C.) for 3 hours, dehydrated to 100% EtOH following standard dehydration procedures. Embryos were then permeabilized, rehydrated, treated with horseradish peroxidase (HRP) suppressor to inhibit endogenous HRP. After treatment with 1 M NH4Cl at room temperature for 3 hours to quench autofluorescence, embryos were then blocked and incubated with Phy-V002 mAb following a standard procedure (see Westerfield, supra). After washing with PBST, embryos were incubated with HRP-conjugated secondary antibody. QuantaBlu (Pierce) was used as the fluorescence enzyme substrate; the stained EC was quantified by measuring the fluorescence units of the enzymatic end product at 315-340 nm (excitation)/370-470 nm (emission) using SPECTRAmax Gemini microplate reader (Molecular Devices).\nDrug effect on EC proliferation was calculated by the following formula: [formula]"}, "Mouse Tumor": {"test_system": "Mouse Tumor", "details": "12 mg/ml/day, dosing frequency 18; cited from earlier work"}, "zebrafish embryos [4]": {"test_system": "zebrafish embryos", "test": "Embryo death and body malformation after drug treatment", "assay_type": "in vivo", "method": "Assay validation with small molecule drugs: Using the whole mount immunostaining technique described supra, several small molecule drugs were tested. […] Flavopiridol is a cyclin-dependent kinase inhibitor known to inhibit cell proliferation (Senderowicz, Invest. New Drugs 17:313-20, 1999). COL-1 and COL-3 are inhibitors of matrix metalloproteases (MMPs), which are known to play a crucial role in vascular endothelial cell migration (Seftor et al. 2001). During early embryo development (˜12 hpf), many structures including the notochord, the somites, and the heart are beginning to form and these structures directly affect both vasculargenesis and angiogenesis. After 20 hpf, since the DA and the PCV are fully formed, drug effects on vessel formation are less likely to be secondary effects (indirect effects due to damage to the notochord, somites, or heart). Therefore, ˜1 dpf was chosed as the time point to initiate drug treatment. Embryos were incubated with varying concentrations of each drug continuously for 48 hours. Drug effects were examined at 2 dpf and 3 dpf."}, "[5]": {"test_system": "vessel formation in zebrafish embryos", "test": "In vivo vessel formation assay (Phy-V002 staining)", "details": "2 dpf embryos", "from_the_text": "In vivo vesselformation assay: Embryos were processed as described in “In vivo EC migration Assay,” supra, and examined by fluorescence microscopy. Images of stained embryos were captured by CCD camera and analyzed by Adobe Photoshop software. Higher magnification (10×) images of control and drug treated embryos at the region where vessel defects were observed were quantitated by morphometric analysis (Signal (S)=[area (pixel) X signal intensity]) using Scion Image program. Percent (%) inhibition in vessel formation can be calculated by the following formula: [formula] Results 1. Quantitative in Vivo EC Proliferation Assay"}, "EC": {"test_system": "EC", "details": "serum of patients treated with flavopiridol; cited from earlier work"}, "zebrafish embryos [6]": {"test_system": "zebrafish embryos", "test": "Embryo growth inhibition by body length", "assay_type": "in vivo", "details": "5 μM for 4 days", "method": "Drugs cause growth retardation: Many drugs cause growth inhibition. […] 1 dpf embryos are treated with identified “hit” drugs at various concentrations for 4 days. Body length is measured at 5 dpf and plotted against drug concentration. Normal untreated and 0.1% DMSO treated embryos are used as controls. At least 10 embryos are used for each condition."}},
  "note": "“Also recorded” adds a separate entry of the source.",
  "data": [
    {"smiles": "Cc1[nH]c(/C=C2\\C(=O)Nc3ccc(Br)cc32)c(C)c1CCC(=O)O", "note": "[SU9518]", "values": [
      {"measurement": "angiogenic vessel inhibition", "setting": "[1]; 0.1 μM to 100 μM, at 2 dpf", "value": "did not result in any angiogenic vessel inhibition"},
      {"measurement": "effect on angiogenic vessel development (discussion summary)", "setting": "[1]", "value": "did not have any effect"},
      {"measurement": "Change in vessel development compared to control", "setting": "[2]; 0.1 μM to 100 μM, at 2 dpf", "value": "did not cause a change in vessel development"},
      {"measurement": "vasculature compared to controls", "setting": "[2]", "value": "appeared unchanged"}
    ]},
    {"smiles": "COc1cc2c(cc1O)CC[C@@H]1[C@@H]2CC[C@]2(C)[C@@H](O)CC[C@@H]12", "note": "[2-methoxyestradiol]", "values": [
      {"measurement": "% inhibition in EC proliferation, dose response", "setting": "[3]", "value": "% inhibition in EC proliferation increasing proportionally with drug concentration"}
    ]},
    {"smiles": "Cc1cc(C)c(/C=C2\\C(=O)Nc3ccccc32)[nH]1", "note": "[SU5416]", "values": [
      {"measurement": "Vessel Reduction (%) Mouse Tumor", "setting": "Mouse Tumor", "value": "˜42%"},
      {"measurement": "inhibition in angiogenic vessel growth", "setting": "[1]; 48 hours treatment, at 3 dpf, surviving embryos", "value": "No significant inhibition"},
      {"measurement": "inhibition at 15 µM", "setting": "[1]; Danio rerio, 15 μM, at 2 dpf, read-out: maximum inhibition in vessel growth", "value": "~40.5", "unit": "%"},
      {"measurement": "Vessel Reduction (%) Zebrafish", "setting": "[1]", "value": "˜40.5%"},
      {"measurement": "body formation of surviving embryos", "setting": "zebrafish embryos [4]; 20 μM, at 2 dpf", "value": "truncated body formation"},
      {"measurement": "vessel formation (cranial vessels and ISVs)", "setting": "[5]; 1 μM", "value": "partially missing; also recorded: abnormal when compared to control embryos"},
      {"measurement": "vessel formation (cranial vessels and ISVs)", "setting": "[5]; 2.5 μM and higher", "value": "nearly completely absent"},
      {"measurement": "Inhibition of angiogenic vessel development (Phy-V001 staining)", "setting": "[2]; 10 μM, 24 hours, at 2 dpf", "value": "inhibitory effect was not obvious"},
      {"measurement": "Inhibition of angiogenic vessel development (Phy-V001 staining)", "setting": "[2]; 15 μM, 24 hours, at 2 dpf", "value": "dramatic decrease in Phy-V001 staining"},
      {"measurement": "Inhibition of angiogenic vessel development (Phy-V001 staining)", "setting": "[2]; 20 μM, at 2 dpf, surviving embryos", "value": "ISVs were barely detectable"},
      {"measurement": "ISV staining by Phy-V001", "setting": "[2]; 10 and 15 μM", "value": "staining was weaker"}
    ]},
    {"smiles": "NC(=O)C1=C(O)C[C@@H]2C[C@@H]3Cc4cccc(O)c4C(=O)C3=C(O)[C@]2(O)C1=O", "note": "[COL-3]", "values": [
      {"measurement": "maximum inhibition of angiogenic vessel growth", "setting": "[1]; 5 μM, at 2 dpf", "value": "~39", "unit": "%"},
      {"measurement": "inhibition on angiogenic vessel development", "setting": "[1]; 1 to 10 μM, at 3 dpf", "value": "~25", "unit": "%"},
      {"measurement": "effect on angiogenic vessel development (discussion summary)", "setting": "[1]", "value": "significant inhibitory effect"},
      {"measurement": "Change in vessel pattern", "setting": "[2]; at 2 dpf, concentration not given", "value": "caused a loss of a few ISVs"},
      {"measurement": "vasculature compared to controls", "setting": "[2]", "value": "appeared unchanged"}
    ]},
    {"smiles": "CN1CC[C@H](c2c(O)cc(O)c3c(=O)cc(-c4ccccc4Cl)oc23)[C@H](O)C1", "note": "[flavopiridol]", "values": [
      {"measurement": "Vessel Reduction (%) EC Proliferation", "setting": "EC", "value": "˜32%"},
      {"measurement": "Vessel Reduction (%) EC Proliferation, range", "setting": "EC", "value": "(8-70% range)"},
      {"measurement": "inhibition at 1 µM", "setting": "[1]; Danio rerio, 1 μM, at 2 dpf", "value": 13, "unit": "%"},
      {"measurement": "inhibition at 3 µM", "setting": "[1]; Danio rerio, 3 μM, at 2 dpf, read-out: maximum inhibition of angiogenic vessel growth", "value": "~27", "unit": "%"},
      {"measurement": "inhibition at 5 µM", "setting": "[1]; Danio rerio, 5 μM, at 3 dpf", "value": "~17", "unit": "%"},
      {"measurement": "Vessel Reduction (%) Zebrafish", "setting": "[1]", "value": "˜27%"},
      {"measurement": "body formation of surviving embryos", "setting": "zebrafish embryos [4]; 5 μM, at 2 dpf", "value": "truncated body formation"},
      {"measurement": "embryos died", "setting": "zebrafish embryos [4]; 5 μM, at 2 dpf", "value": "~16", "unit": "%"},
      {"measurement": "embryos died", "setting": "zebrafish embryos [4]; 7 μM, at 2 dpf", "value": "~20", "unit": "%"},
      {"measurement": "embryos died", "setting": "zebrafish embryos [4]; 7 μM, at 3 dpf", "value": "All the 7 μM flavopiridol treated embryos died"},
      {"measurement": "% inhibition in EC proliferation, dose response", "setting": "[3]", "value": "% inhibition in EC proliferation increasing proportionally with drug concentration"},
      {"measurement": "overall embryo growth, body length", "setting": "zebrafish embryos [6]", "value": "caused inhibition of overall embryo growth"},
      {"measurement": "Inhibition of angiogenic vessel development (Phy-V001 staining)", "setting": "[2]; 1 μM, at 2 dpf", "value": "inhibitory effect was not obvious"},
      {"measurement": "Inhibition of angiogenic vessel development (Phy-V001 staining)", "setting": "[2]; 3 μM, at 2 dpf", "value": "ISV staining in the trunk region decreased"},
      {"measurement": "Inhibition of angiogenic vessel development (Phy-V001 staining)", "setting": "[2]; 5 μM, at 2 dpf, surviving embryos", "value": "dramatic decrease in ISV staining"},
      {"measurement": "Inhibition of angiogenic vessel development (Phy-V001 staining)", "setting": "[2]; 7 μM, at 2 dpf, surviving embryos", "value": "decreased staining in ISVs"},
      {"measurement": "ISV staining by Phy-V001", "setting": "[2]; 1, 3, and 5 μM", "value": "staining intensity appeared weaker"}
    ]}
  ]
}
